Measurements published in patent publication US10111874B2, “Combination therapies for treatment of cancer” (Araxes Pharma LLC, priority 2014, dated 2018).

molecular target: T1, KRAS G12C 1-169, his-tagged protein, GDP-loaded (Homo sapiens, UniProt P01116, G12C); test: Biochemical assay: covalent binding to KRAS G12C analyzed by mass spectrometry; conditions: compounds 48-246, measured at 2 h; also: test concentration or dose not given here
T1 construct: KRAS G12C 1-169, his-tagged protein, GDP-loaded
T1 sequence (P01116 1-169 isoform P01116-2 G12C): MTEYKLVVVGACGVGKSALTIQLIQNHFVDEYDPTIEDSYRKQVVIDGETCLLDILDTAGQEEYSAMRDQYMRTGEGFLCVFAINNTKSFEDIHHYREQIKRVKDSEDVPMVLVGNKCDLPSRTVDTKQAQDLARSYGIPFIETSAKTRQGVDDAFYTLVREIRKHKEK

SMILES | Binding %
C=CC(=O)N1CCN(c2ncnc3c(F)c(-c4c(C)ccc5[nH]ncc45)c(Cl)cc23)CC1 [Compound I-234, 1-(4-(6-chloro-8-fluoro-7-(5-methyl-1H-indazol-4-yl)quinazolin-4-yl)piperazin-1-yl)prop-2-en-1-one] | ++++ (++++indicates binding activity greater than 75%)
C=CC(=O)N1CCN(c2ncnc3c(F)c(-c4c(O)ccc5ccccc45)c(Cl)cc23)CC1 [Compound I-235, 1-(4-(6-chloro-8-fluoro-7-(2-hydroxynaphthalen-1-yl)quinazolin-4-yl)piperazin-1-yl)prop-2-en-1-one] | +++ (+++indicates binding activity greater than 50% and up to 75%)
C=CC(=O)N1CCN(c2ncnc3c(F)c(-c4ccccc4C(N)=O)c(Cl)cc23)CC1 [Compound I-236, 2-(4-(4-acryloylpiperazin-1-yl)-6-chloro-8-fluoroquinazolin-7-yl)benzamide] | +++ (+++indicates binding activity greater than 50% and up to 75%)
C=CC(=O)N1CCN(c2ncnc3cc(-c4c(C)ccc5[nH]ncc45)c(C(F)(F)F)cc23)CC1 [Compound I-237, 1-(4-(7-(5-methyl-1H-indazol-4-yl)-6-(trifluoromethyl)quinazolin-4-yl)piperazin-1-yl)prop-2-en-1-one] | ++++ (++++indicates binding activity greater than 75%)
C=CC(=O)N1CCN(c2cnnc3cc(-c4c(C)ccc5[nH]ncc45)c(Cl)cc23)CC1 [Compound I-238, 1-(4-(6-chloro-7-(5-methyl-1H-indazol-4-yl)cinnolin-4-yl)piperazin-1-yl)prop-2-en-1-one] | +++ (+++indicates binding activity greater than 50% and up to 75%)
CCOC(=O)/C=C/C(=O)N1CCN(c2ncnc3cc(-c4ccc(F)cc4F)c(Cl)cc23)CC1 [Compound I-239, (E)-ethyl 4-(4-(6-chloro-7-(2,4-difluorophenyl)quinazolin-4-yl)piperazin-1-yl)-4-oxobut-2-enoate] | +++ (+++indicates binding activity greater than 50% and up to 75%)
C=CC(=O)N1CCN(c2ncnc3cc(-c4cccc5ccc(=O)[nH]c45)c(Cl)cc23)CC1 [Compound I-240, 8-(4-(4-acryloylpiperazin-1-yl)-6-chloroquinazolin-7-yl)quinolin-2(1H)-one] | +++ (+++indicates binding activity greater than 50% and up to 75%)
CC(C)/C=C(\C#N)C(=O)N1CCN(c2ncnc3cc(-c4ccccc4F)c(Cl)cc23)CC1 [Compound I-241, (E)-2-(4-(6-chloro-7-(2-fluorophenyl)quinazolin-4-yl)piperazine-1-carbonyl)-4-methylpent-2-enenitrile] | + (+indicates binding activity from 5% to 25%)
C=CC(=O)N1CCN(c2c(C#N)cnc3c(F)c(-c4ccccc4F)c(Cl)cc23)CC1 [Compound I-242, 4-(4-acryloylpiperazin-1-yl)-6-chloro-8-fluoro-7-(2-fluorophenyl)quinoline-3-carbonitrile] | ++++ (++++indicates binding activity greater than 75%)
C=CC(=O)N1CCN(c2ncnc3c(F)c(-c4ccccc4C(F)(F)F)c(Cl)cc23)CC1CC#N (stereo not drawn) [Compound I-243, 2-(1-acryloyl-4-(6-chloro-8-fluoro-7-(2-(trifluoromethyl)phenyl)quinazolin-4-yl)piperazin-2-yl)acetonitrile] | ++++ (++++indicates binding activity greater than 75%)
C=CC(=O)N1CCN(c2ncnc3cc(-c4c(OC)ccc5[nH]ncc45)c(Cl)cc23)CC1 [Compound I-244, 1-(4-(6-chloro-7-(5-methoxy-1H-indazol-4-yl)quinazolin-4-yl)piperazin-1-yl)prop-2-en-1-one] | + (+indicates binding activity from 5% to 25%)
N#C/C(=C\c1cncs1)C(=O)N1CCN(c2ncnc3cc(-c4ccccc4F)c(Cl)cc23)CC1 [Compound I-245, (E)-2-(4-(6-chloro-7-(2-fluorophenyl)quinazolin-4-yl)piperazine-1-carbonyl)-3-(thiazol-5-yl)acrylonitrile] | + (+indicates binding activity from 5% to 25%)
C=CC(=O)N1CCN(c2c(C#N)cnc3c(F)c(-c4c(O)cccc4F)c(Cl)cc23)CC1 [Compound I-246, 4-(4-acryloylpiperazin-1-yl)-6-chloro-8-fluoro-7-(2-fluoro-6-hydroxyphenyl)quinoline-3-carbonitrile] | ++++ (++++indicates binding activity greater than 75%)

same assay, conditions: compounds 247-342, measured at 30 min

SMILES | Binding %
O=C(C#CCO)N1CCN(c2ncnc3cc(-c4ccc(F)cc4F)c(Cl)cc23)CC1 [Compound I-247, 1-(4-(6-chloro-7-(2,4-difluorophenyl)quinazolin-4-yl)piperazain-1-yl)-4-hydoxybut-2-yn-1-one] | +++ (+++indicates binding activity greater than 50% and up to 75%)
C=CC(=O)N1CCN(c2ncnc3cc(-c4cc(OC)cc5ccccc45)c(Cl)cc23)CC1 [Compound I-249, 1-(4-(6-chloro-7-(3-methoxynaphthalen-1-yl)quinazolin-4-yl)piperazin-1-yl)prop-2-en-1-one] | + (+indicates binding activity from 5% to 25%)
C=CC(=O)N1CCN(c2ncnc3cc(-c4c(O)ccc5c4CCCC5)c(Cl)cc23)CC1 [Compound I-250, 1-(4-(6-chloro-7-(2-hydroxy-5,6,7,8-tetrahydronaphthalen-1-yl)quinazolin-4-yl)piperazin-1-yl)prop-2-en-1-one] | ++ (++indicates binding activity greater than 25% and up to 50%)
C=CC(=O)N1CCN(c2ncnc3cc(-c4cc(O)cc5ccccc45)c(Cl)cc23)CC1 [Compound I-251, 1-(4-(6-chloro-7-(3-hydroxynaphthalen-1-yl)quinazolin-4-yl)piperazin-1-yl)prop-2-en-1-one] | ++++ (++++indicates binding activity greater than 75%)
C#CC1CN(c2ncnc3c(F)c(-c4ccccc4F)c(Cl)cc23)CCN1C(=O)C=C (stereo not drawn) [Compound I-252, 1-(4-(6-chloro-8-fluoro-7-(2-fluorophenyl)quinazolin-4-yl)-2-ethynylpiperazin-1-yl)prop-2-en-1-one] | ++++ (++++indicates binding activity greater than 75%)
C=CC(=O)N1CCN(c2nc(NCCN(C)C)nc3c(F)c(-c4c(C)ccc5[nH]ncc45)c(Cl)cc23)CC1 [Compound I-253] | ++++ (++++indicates binding activity greater than 75%)
C=CC(=O)N1CCN(c2ncnc3c(F)c(-c4c(C)c(C)cc5cn[nH]c45)c(Cl)cc23)CC1 [Compound I-255, 1-(4-(6-chloro-7-(5,6-dimethyl-1H-indazol-7-yl)-8-fluoroquinaolin-4-yl)piperazin-1-yl)prop-2-en-1-one] | +++ (+++indicates binding activity greater than 50% and up to 75%)
C=CC(=O)N1CCN(c2nc(NC)nc3c(F)c(-c4c(C)ccc5[nH]ncc45)c(Cl)cc23)CC1 [Compound I-257, 1-(4-(6-chloro-8-fluoro-7-(5-methyl-1H-indazol-4-yl)-2-(methylamino)quinazolin-4-yl)piperazin-1-yl)prop-2-en-1-one] | ++++ (++++indicates binding activity greater than 75%)
C=CC(=O)N1CCN(c2cnnc3cc(-c4c(O)ccc5ccccc45)c(Cl)cc23)CC1 [Compound I-258, 1-(4-(6-chloro-7-(2-hydroxynaphthalen-1-yl)cinnolin-4-yl)piperazin-1-yl)prop-2-en-1-one] | ++ (++indicates binding activity greater than 25% and up to 50%)
Cc1coc(/C=C(\C#N)C(=O)N2CCN(c3ncnc4cc(-c5ccccc5F)c(Cl)cc34)CC2)n1 [Compound I-259, (E)-2-(4-(6-chloro-7-(2-fluorophenyl)quinazolin-4-yl)piperazine-1-carbonyl)-3-(4-methyloxazol-2-yl)acrylonitrile] | +++ (+++indicates binding activity greater than 50% and up to 75%)
C=CC(=O)N1CCN(c2c(C#N)cnc3cc(-c4c(O)ccc5ccccc45)c(Cl)cc23)CC1 [Compound I-260, 4-(4-acryloylpiperazin-1-yl)-6-chloro-7-(2-hydroxynaphthalen-1-yl)quinoline-3-carbonitrile] | ++ (++indicates binding activity greater than 25% and up to 50%)
CC(C)(/C=C(\C#N)C(=O)N1CCN(c2ncnc3cc(-c4ccccc4F)c(Cl)cc23)CC1)CO [Compound I-261, (E)-2-(4-(6-chloro-7-(2-fluorophenyl)quinazolin-4-yl)piperazine-1-carbonyl)-5-hydroxy-4,4-dimethylpent-2-enenitrile] | + (+indicates binding activity from 5% to 25%)
N#C/C=C\C(=O)N1CCN(c2ncnc3cc(-c4ccc(F)cc4F)c(Cl)cc23)CC1 [Compound I-263, (Z)-4-(4-(6-chloro-7-(2,4-difluorophenyl)quinaozlin-4-yl)piperazin-1-yl)-4-oxobut-2-enenitrile] | + (+indicates binding activity from 5% to 25%)
C=CC(=O)N1CCN(c2ncnc3cc(-c4cc(Cl)cc5cn[nH]c45)c(Cl)cc23)CC1 [Compound I-264, 1-(4-(6-chloro-7-(5-chloro-1H-indazol-7-yl)quinazolin-4-yl)piperazin-1-yl)prop-2-en-1-one] | ++ (++indicates binding activity greater than 25% and up to 50%)
C=CC(=O)N1CCN(c2ncnc3cc(-c4c(O)cccc4C#N)c(Cl)cc23)CC1 [Compound I-265, 2-(4-(4-acryloylpiperazin-1-yl)-6-chloroquinazolin-7-yl)-3-hydroxybenzonitrile] | + (+indicates binding activity from 5% to 25%)
C=CC(=O)N1CCN(c2ncnc3cc(-c4c(Cl)ccc5[nH]ncc45)c(Cl)cc23)CC1 [Compound I-266, 1-(4-(6-chloro-7-(5-chloro-1H-indazol-4-yl)quinazolin-4-yl)piperazin-1-yl)prop-2-en-1-one] | +++ (+++indicates binding activity greater than 50% and up to 75%)

same assay, conditions: compounds 247-342, measured at 30 min; listed as 256

SMILES | Binding %
C=CC(=O)N1CCN(c2ncnc3c(F)c(-c4cc(O)cc5ccccc45)c(Cl)cc23)CC1 [Compound I-256, 1-(4-(6-chloro-8-fluoro-7-(3-hydroxynaphthalen-1-yl)quinazolin-4-yl)piperazin-1-yl)prop-2-en-1-one] | +++ (+++indicates binding activity greater than 50% and up to 75%)
